# Entries after “also recorded” stand apart in the source; their conditions may differ.
# Assays:
# 4T1 tumors [1] = assay: Tumor metabolites by GC-MS, 4T1 syngeneic breast cancer model; format: in vivo, mouse; details: 4T1 model
# Experimental: Following 7 or 14 days treatment mice was fasted for 6-8 h prior to euthanasia and tumor harvest. Tumor metabolites were extracted in methanol/water/chloroform using the Qiagen TissueLyser LT, evaporated to dryness and resuspended in 80% methanol. The equivalent volume for 5 mg of tissue was further extracted in 80% ice-cold methanol mixture containing isotope-labeled standards for lactate (Cayman Chemicals CLM-1579), and pyruvate (Cayman Chemicals CLM-2440) and evaporated to dryness.
# (§1) Metabolite derivitzation using MOX-tBDMS was conducted as previously described (49).
# (§2) Derivatized samples were analyzed by GC-MS using a DB-35MS column (30 m×0.25 mm i.d.×0.25 μm) installed in an Agilent 7890B gas chromatograph (GC) interfaced with an Agilent 5977B mass spectrometer as previously described (50) and corrected for natural abundance using in-house algorithms adapted from (51).
# MDA231 cells [2] = assay: Metabolite secretion, GC-MS; format: cell-based; details: MDA231, 10 μM, 24 hrs
# Experimental: Media was centrifuged at 1,000×g to pellet cell debris and 5 μL of supernatant was extracted in 80% ice-cold methanol mixture containing isotope-labeled internal standards for lactate (Cayman Chemicals CLM-1579), and pyruvate (Cayman Chemicals CLM-2440) and evaporated to dryness.
# as §1, §2
# GAPDH = GAPDH activity assay; format: cell-based
# Experimental: (§3) The activity assay was performed as per the manufacturer's instructions (Aldolase: Biovision, K665, GAPDH: Sigma, MAK277). Values were normalized to protein concentrations and fold change was calculated relative to DMSO.
# 4T1 cell line = assay: Extracellular flux assay (ECAR, glycolysis); format: cell-based, mouse; details: 4T1, 24 hrs
# Experimental: (§4) The bioenergetic function of cells in response to drug treatments was determined using a Seahorse Bioscience XF96 Extracellular Flux Analyzer (Seahorse Bioscience). Cells were seeded in specialized V7 Seahorse tissue culture plates (Agilent, 102601-100) for 24 hrs. […] One hr prior to experiment, cells were washed and changed to XF Base medium (Agilent, 10353-100) adjusted to pH 7.4. For OXPHOS experiments medium was supplemented with pyruvate (1 mM), L-glutamine (2 mM) and glucose (10 mM). […] For glycolysis experiments medium was supplemented with L-glutamine (1 mM). […] For all analysis values were normalized to protein concentration before baseline measurements were subtracted. The fold change was calculated relative to DMSO.
# [3] = format: in vivo; details: 50 mg/kg, while on treatment
# aldolase [4] = assay: Immunoprecipitation with acetyl beads; format: cell-based; details: 10 μM, 24 hr treatment
# Experimental: Cell lysates were prepared in lysis buffer (50 mM Tris-HCL PH 7.4, 150 mM NACL, 1% Triton x100, 1 mM EDTA and protease inhibitors). Protein was quantified and 500 μg of protein was added to 20 μl of A-agarose beads (Pierce, 20333) and allowed to rotate for 1 hr at 4° C. and 3000 rpm. Proteins were centrifuged for 3 minutes at 3000 rpm at 4° C. Supernatant was added to 500 μl of lysis buffer, […] pan-specific anti-acetylated lysine beads (Immunechem, ICP0388) or control agarose beads, and made up to 1 ml with dH2O. Samples were rotated overnight at 4° C. at 3000 rpm. Samples were washed with lysis buffer and were resuspended in 30 μl of 2×IP Dye with BME and boiled and ran out on 12% SDS-PAGE gel.
# Histone 4 (H4) = assay: Acetylation of Histone 4 in cells; format: cell-based
# Experimental: (§5) Protein samples for Western blot analysis were separated by 12% SDS-PAGE gels. Following separation on the gel, proteins were transferred using electrophoresis onto a nitrocellulose membrane and blocked at room temperature shaking in 5% milk (w/v) in TBS containing 0.5% Tween-20 (TBS-T). Membranes were incubated overnight at 4° C. with primary antibody. HRP tagged secondary antibodies were diluted in TBS-T/5% milk for 1 hr. Antibody reactive bands were detected with LAS-3000, Fujifilm. Fluorescent secondary antibodies were diluted 1:10000 in TBS-T/5% milk for 1 hour. Antibody reactive bands were detected with the Odyssey® infrared imaging system (LI-COR Biosciences). IRDye® 680LT and 800CW-Infrared Dye coupled anti-rabbit or anti-mouse (LI-COR Biosciences).
# MDA231 = assay: 3D spheroid formation in Matrigel; format: cell-based; details: MDA231, 30 μM
# Experimental: Individual wells of a 6 well plate was coated with Matrigel™ (Corning) and placed in an incubator at 37° C. for 30 min. 50,000 cells/ml were resuspended in RPMI supplemented with 2% Matrigel™ Cells were placed in Matrigel™ coated wells for 30 min at 37° C., after which RMPI supplemented with 2% Matrigel™ was added to the cultures. […] Cells were maintained in culture for 7 days in an incubator at 37° C., 5% CO2 and cultures imaged every 24 hrs with Nikon ECLIPSE TE300.
# acetylated tubulin = assay: Western blot of acetylated tubulin in cells; format: cell-based; details: increasing doses
# Experimental: as §5
# MDA-231 cells = assay: Extracellular flux assay (OCR); format: cell-based; details: MDA-231, 10 μM
# Experimental: as §4
# BT549 cells [5] = assay: Extracellular flux assay (OCR); format: cell-based; details: BT549, 10 μM
# Experimental: as §4
# MDA231 cells [6] = assay: U-13C6-glucose stable isotope tracing, GC-MS; format: cell-based; details: MDA231, 10 μM, 24 hrs
# Experimental: Cells were seeded in 12-well tissue culture plates and left to adhere overnight. […] Following treatment, media was removed and cells were washed with 1×PBS before adding basic RPMI (Thermo Fisher Scientific, 11879020) supplemented with dialyzed FBS (Gibico 26400044) and either 10 mM of [U]-^13C6 labelled glucose (Cambridge Isotopes CLM-1396) for 30 minutes or tracing media containing 10 mM 1,2-^13C labelled glucose (Cambridge Isotopes CLM-504) for 12 h. Cellular metabolites were extracted after a brief wash with 0.9% ice-cold saline solution using a methanol/water/chloroform extraction method, as previously described (48).
# as §1, §2
# aldolase [7] = assay: Aldolase activity assay; format: cell-based
# Experimental: as §3
# MMTV-pyMT tumors = assay: MMTV-pyMT genetic breast mouse model; details: 50 mg/kg, two weeks
# 4T1 tumors [8] = assay: 4T1 syngeneic breast mouse model; details: 50 mg/kg, two weeks, 4T1 model
# [9] = system: mitochondrial membrane potential; assay: Mitochondrial membrane potential (TMRE); format: cell-based; details: 10 μM
# Experimental: Apoptosis was assessed by Annexin V/propidium iodide (Biolegend, 640906, Sigma P4170) staining using LSRII Biosciences, Facscanto. Cell viability was detected by CellTiter-Glo® (My Bio, G3582) according to the manufacture's protocol. Mitochondrial membrane potential was measured by adding Tetramethylrhodamine, ethyl ester (TMRE) (Biosciences, T669) at 20 nM for 30 minutes at 37° C. and assessed by flow cytometry with FACS CANTO II.
# MDA231 cells [10] = assay: Migration and invasion assays (Boyden chamber); format: cell-based; details: MDA231, 30 μM
# Experimental: (§6) Cell migration and invasion experiments were performed using the Boyden Chamber Assay (Corning, CLS3464). 500,000 cells were seeded in serum free RPMI media (Thermo Fisher Scientific, 118757093) in the upper chamber and RPMI media containing 10% FBS (Sigma, F2442), was placed in the lower chamber. For invasion experiments the upper chamber was coated with Matrigel™ (Corning). […] Following 24 hrs (migration experiments) or 48 hrs (invasion experiments) treatment cells were stained with 0.5% crystal violet.
# BT549 cells [11] = assay: Migration and invasion assays (Boyden chamber); format: cell-based; details: BT549, 30 μM
# Experimental: as §6
# HDAC proteins (HDAC1-9) = assay: HDAC inhibitory assay, isozyme panel; details: in vitro HDAC inhibitor screen
# MDA231 cells [12] = assay: Extracellular flux assay (ECAR, glycolysis); format: cell-based; details: MDA231, 10 μM, 24 hr
# Experimental: as §4
# MCF10a cells = assay: Extracellular flux assay (ECAR, glycolysis); format: cell-based; details: 10 μM, 24 hr
# Experimental: as §4
smiles,measurement,setting,value
O=C(CSC1=NC2CCCCC2N1)N1CCOCC1 (stereo not drawn) [BAS-2],intratumoral lactate,4T1 tumors [1],trend towards decreased intratumoral lactate
same,intratumoral pyruvate levels,4T1 tumors [1],significant reduction in intratumoral pyruvate levels
same,secretion of lactate and pyruvate,MDA231 cells [2],significant reduction in the secretion of lactate and pyruvate
same,GAPDH activity,GAPDH; BT-549,dose dependent reduction in GAPDH activity
same,GAPDH activity,GAPDH; MDA-231,dose dependent reduction in GAPDH activity
same,glycolysis and glycolytic flux,4T1 cell line,decrease in glycolysis and glycolytic flux
same,toxicity as assessed by weight of the mice,[3],did not detect any overt evidence of toxicity
same,acetylation of aldolase,aldolase [4],increased the acetylation of aldolase
same,acetylation of Histone 4 (H4),Histone 4 (H4),did not cause an increase in acetylation of Histone 4
same,3D spheroid formation,MDA231,reduction in 3D spheroid formation
same,acetylated tubulin level,acetylated tubulin,increase in the acetylated tubulin
same,"OCR, basal respiration and ATP production",MDA-231 cells,did not observe any significant changes in OCR
same,"OCR, basal respiration and ATP production",BT549 cells [5],did not observe any significant changes in OCR
same,"carbon incorporation from glucose into PEP, 3PG, lactate and pyruvate",MDA231 cells [6],significant reduction in carbon incorporation from glucose
same,aldolase enzymatic activity,aldolase [7]; BT-549 cells,dose-dependent significant reduction in aldolase enzymatic activity
same,aldolase enzymatic activity,"aldolase [7]; MDA231 cells, 24 hrs",dose-dependent significant reduction in aldolase enzymatic activity
same,tumor volume,MMTV-pyMT tumors,reduction in tumor volume
same,tumor weight and tumor volume,4T1 tumors [8],reduction in tumor weight and tumor volume; also recorded: reduce tumor volume and weight
same,mitochondrial membrane potential,[9],no loss of mitochondrial membrane potential
same,cell migration and invasion,MDA231 cells [10],significant reduction in both cell migration and invasion
same,cell migration and invasion,BT549 cells [11],significant reduction in both cell migration and invasion
same,HDAC isozymes inhibited,HDAC proteins (HDAC1-9),inhibited only the isozyme HDAC6
same,glycolytic capacity (ECAR),MDA231 cells [12],reduced the glycolytic capacity
same,glycolysis and glycolytic capacity (ECAR),MCF10a cells,did not affect the glycolysis or glycolytic capacity

# Source: patent publication US20250368608A1, “SELECTIVE HDAC6 INHIBITOR” (ROYAL COLLEGE OF SURGEONS IN IRELAND, priority 2021, published 2025)
